Measurements: PubChem BioAssay (NCI)
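Each compound was tested at five concentrations against cells in 96-well plates for 48 hours. Here, GI50 denotes the concentration required for 50% inhibition of growth. Definition used: TGI = concentration required for complete inhibition of growth.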

Columns and labels:
Assay in all cases: NCI-60 cell line screen, 48 h
ACHN renal = tested on: ACHN renal
HCT-116 colon = tested on: HCT-116 colon
HOP-62 NSCLC = tested on: HOP-62 NSCLC
MALME-3M melanoma = tested on: MALME-3M melanoma
MCF7 breast = tested on: MCF7 breast
NCI/ADR-RES ovarian = tested on: NCI/ADR-RES ovarian
PC-3 prostate = tested on: PC-3 prostate
SK-MEL-5 melanoma = tested on: SK-MEL-5 melanoma
SK-OV-3 ovarian = tested on: SK-OV-3 ovarian
SNB-19 CNS = tested on: SNB-19 CNS

SMILES | GI50 (ACHN renal) [µM] | TGI (ACHN renal) [µM] | GI50 (HCT-116 colon) [µM] | TGI (HCT-116 colon) [µM] | GI50 (HOP-62 NSCLC) [µM] | TGI (HOP-62 NSCLC) [µM] | GI50 (MALME-3M melanoma) [µM] | TGI (MALME-3M melanoma) [µM] | GI50 (MCF7 breast) [µM] | TGI (MCF7 breast) [µM] | GI50 (NCI/ADR-RES ovarian) [µM] | TGI (NCI/ADR-RES ovarian) [µM] | GI50 (PC-3 prostate) [µM] | TGI (PC-3 prostate) [µM] | GI50 (SK-MEL-5 melanoma) [µM] | TGI (SK-MEL-5 melanoma) [µM] | GI50 (SK-OV-3 ovarian) [µM] | TGI (SK-OV-3 ovarian) [µM] | GI50 (SNB-19 CNS) [µM] | TGI (SNB-19 CNS) [µM]
FC(F)(F)c1ccc(-c2cnc(-n3cc(COCCN4CCCCC4)nn3)nc2NC2CCCCCC2)cc1 | 4.53 | 8.39 | 3.32 | 7 | 4.15 | 8.64 | 4.24 | 8.47 | 3.21 | 7.4 | 3.85 | 7.66 | 2.93 | 6.18 | 3.46 | 6.74 | 4.04 | 7.62 | 3.61 | 7.11
O=c1cc(-c2c[nH]c3ccccc23)[nH]c2cc3c(cc12)OCO3 |  | > 100 |  | > 100 |  | > 100 |  | > 100 |  |  |  |  |  |  |  | > 100 |  |  |  | > 100
O=C1NC(=O)C(=Nc2cccc3c(=O)[nH][nH]c(=O)c23)C(c2nc3ccccc3s2)C1=O (stereo unspecified) |  | > 100 |  | > 100 |  | > 100 |  | > 100 |  |  |  |  |  |  |  | > 100 |  | > 100 |  | > 100
CCC(c1ccc(OC)cc1)C(CC)c1ccc(O)c(CN2CCN(C)CC2)c1 (stereo unspecified) | 9.99 | 22.9 | 3.46 | 14.5 | 11 | 26.2 |  |  | 2.42 | 5.09 | 5.51 | 20.6 | 6.73 | 21.2 | 1.69 | 3.22 | 13.8 | 29.2 | 4.88 | 18.5
Cc1ccc(NC(=O)C2C(=O)N(c3ccc(C)c(C)c3)C(=O)/C2=N\NC(N)=O)cc1C (stereo unspecified) |  | > 100 |  | > 100 |  | > 100 |  | > 100 |  |  |  |  |  |  |  | > 100 |  | > 100 |  | > 100
CN=C(NC(=S)N(C)C)N(C)C |  | > 100 |  | > 100 |  | > 100 |  | > 100 |  |  |  |  |  |  |  | > 100 |  | > 100 |  | > 100
CC(=O)N1N=C(c2ccc(Nc3ccnc4cc(Cl)ccc34)cc2)CC1c1ccc(Cl)cc1 (stereo unspecified) | 3.96 | > 100 | 38.8 | > 100 | > 100 | > 100 |  |  | 4.04 | > 100 | 3.04 | > 100 | 3.02 | > 100 | 2.2 | 16 |  |  | > 100 | > 100
C#CC[N+](C)(CC#C)CC#C |  | > 100 |  |  |  | > 100 |  | > 100 |  |  |  |  |  |  |  | > 100 |  | > 100 |  | > 100
O=C(CSc1ncn[nH]1)C[P+](c1ccccc1)(c1ccccc1)c1ccccc1 |  | > 100 |  |  |  | > 100 |  | > 100 |  |  |  |  |  |  |  | > 100 |  | > 100 |  | > 100
CCOc1ccc2c(c1)[n+]([O-])c(-c1ccc(Br)cc1)c(N)[n+]2[O-] |  | > 100 |  |  |  | > 100 |  | > 100 |  |  |  |  |  |  |  | 40.9 |  | > 100 |  | > 100
Oc1ccc(O)c(-c2cc(-c3ccc(Cl)cc3)nn2-c2ccccc2)c1 | 18.6 | 32.6 |  |  |  |  |  |  | 3.88 | > 100 |  | 25.3 | 3.19 | 13.1 | 10.1 | 28.8 |  |  |  | 
O=C(O)C1CCCCC1c1c2ccc(=O)c(O)c-2oc2c(O)c(O)ccc12 (stereo unspecified) |  | 60.1 |  | 28.4 |  | 94.4 |  | > 100 |  | 37.5 |  |  |  | > 100 |  | > 100 |  | > 100 |  | > 100
COc1cc2c(cc1OC)C(Sc1ccc(SC)cc1)c1c(nc(N)c(C#N)c1N)O2 (stereo unspecified) | 1.69 | 3.06 | 1.62 | 3.01 | 1.78 | 3.26 | 1.85 | 3.35 | 1.1 | 3.54 |  |  | 1.63 | 3.06 | 1.69 | 3.07 | 1.88 | 3.31 | 1.45 | 2.8
CCN(CC)c1ccc(N=Nc2ccc([N+](=O)[O-])cc2OC(=O)/C=C/c2ccccc2)c(OC(=O)/C=C/c2ccccc2)c1 |  | > 100 |  | > 100 |  | > 100 |  | > 100 |  |  |  |  |  |  |  | > 100 |  | > 100 |  | > 100
C[N+](C)(C)CC1CCC/C1=N/O (stereo unspecified) |  | > 100 |  | 46 |  | > 100 |  | > 100 |  |  |  |  |  |  |  | > 100 |  | > 100 |  | > 100
Cc1cccc(C(C)C)c1N1C(=O)C(=O)C(c2nc3ccccc3o2)C(=O)C1=O |  | > 100 |  | > 100 |  | > 100 |  | > 100 |  |  |  |  |  |  |  | > 100 |  | > 100 |  | > 100
O=S(=O)(O)c1ccc(N=Nc2nc(C(F)(F)F)c(C(F)(F)F)[nH]2)cc1 |  | > 100 |  | > 100 |  | > 100 |  | > 100 |  |  |  |  |  |  |  | > 100 |  | > 100 |  | 71.1
COC(=O)C(=CNC(N)=O)C(=O)OC |  | > 100 |  | > 100 |  | > 100 |  |  |  | > 100 |  | > 100 |  | > 100 |  | > 100 |  |  |  | > 100
O=[N+]([O-])c1ccc(C2CC(c3ccccc3Cl)=Nc3ccccc3S2=O)cc1 (stereo unspecified) |  | 4.26 |  | 3.49 |  | 23.4 |  | 32 |  | 7.92 |  |  |  | 17.3 |  | 14.2 |  | 52.9 |  | 12.4
ON(Cc1ccccc1)C(=S)c1ccccc1 |  | 62.1 |  | 51.6 |  | 42.9 |  | > 100 |  | > 100 |  |  |  | > 100 |  | > 100 |  | > 100 |  | > 100
NC(=O)c1c([N+](=O)[O-])cc(C(F)(F)F)cc1[N+](=O)[O-] |  | > 100 |  | > 100 |  | > 100 |  | 52.1 |  |  |  |  |  |  |  | > 100 |  | > 100 |  | > 100
